Each structure is given as a SMILES string.

For one test, the system named is Candida albicans. Description: Antibacterial effect, MIC. It counts as cell-based. To be noted: 48 hours, 25° C. As for the experimental part: (§1) The antibacterial testing is carried out in order to evaluate the antibacterial effect of ginsenoside F2. The detailed testing method is as follows. Staphylococcus aureus, Escherichia coli, and pseudomonas aeruginosa strains are cultured with a tryptic soy broth, and candida albicans and aspergillus niger strains are cultured with sabouraud dextrose broth. The test bacterial liquid is the 1/100 (1/10 for candida albicans strain) diluted solution of the culture medium diluted with each medium. For aspergillus niger, the test bacterial liquid is the spore suspension prepared to 2×10^8 cfu/ml. 0.15 ml of the test bacterial liquid is added to 15 ml of each culture medium to prepare a well-blended diluted solution. 16 μl of the sample is put into each well on the first row of a 96-well plate, and 184 μl of the diluted solution is added to each well on the first row. Then, 100 μl of the diluted solution is put into each of the other wells. The mixed solution of the first row is sufficiently stirred, and 100 μl of the mixed solution is added to each well on the second row of the 96-well plate and stirred sufficiently. 100 μl of the mixed solution on the second row is taken and added to each well on the third row to achieve two-fold serial dilution. Straphylococcus aureus, Escherichia coli, and Pseudomonas aeruginosa strains are cultured in a thermostat container at 32°, and Candida albicans and Aspergillus niger strains are cultured in a thermostat container at 25° C. 48 hours later, the cell proliferation is determined by the turbidity index and microscopic observation to determine the minimum inhibitory concentration (MIC).

The next test concerns Escherichia coli. Description: Antibacterial effect, MIC. In kind it is cell-based. As to conditions: 48 hours, 32°. As for the experimental part:
as §1

For the compound `CC(C)=CCC[C@](C)(O[C@@H]1O[C@H](CO)[C@@H](O)[C@H](O)[C@H]1O)[C@H]1CC[C@]2(C)[C@@H]1[C@H](O)C[C@@H]1[C@@]3(C)CC[C@H](O[C@@H]4O[C@H](CO)[C@@H](O)[C@H](O)[C@H]4O)C(C)(C)[C@@H]3CC[C@]12C` [Ginsenoside F2, ginsenoside F2], the “MIC (%) Candida albicans” value against Candida albicans is recorded as greater than 4%. For the same compound, the “MIC (%) Escherichia coli” value against Escherichia coli is given as 0.13%.

The values above are taken from patent publication US20150352134A1, “COMPOSITION FOR TOPICAL SKIN APPLICATION CONTAINING GINSENOSIDE F2 DERIVED FROM HYDROPONIC GINSENG” (AMOREPACIFIC CORPORATION, priority 2012, published 2015).
